Measurements: patent US9284283B2, “Macrocyclic compounds for modulating IL-17” (ENSEMBLE THERAPEUTICS CORPORATION, priority 2012, dated 2016)

molecular target: T1, recombinant human IL17a (binding to its receptor IL17R) (Homo sapiens, UniProt Q16552); assay: IL-17 competition ELISA I (IL17a coated, IL17R/Fc binding); conditions: not given
T1 construct: purchased R&D Systems 317-ILB (IL17a); 177-IR (IL17R/Fc)
T1 sequence (Q16552 20-155 limits assumed): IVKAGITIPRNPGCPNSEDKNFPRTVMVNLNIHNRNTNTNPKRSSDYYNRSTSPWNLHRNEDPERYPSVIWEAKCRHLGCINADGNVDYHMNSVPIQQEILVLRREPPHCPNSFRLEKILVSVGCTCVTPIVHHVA
Method in brief: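 Plates coated with 20 nM recombinant human IL17a received compound dilutions and 12 nM IL17R/Fc (final) for 30 min at room temperature. Bound receptor was detected with HRP anti-human Fc and TMB, read at 450 nm. IC50 came from a 4-parameter logistic fit between no-competitor and blank controls.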

| SMILES | IC50 [nM] |
| --- | --- |
| O=C1CC2(CCCC2)CC(=O)N[C@H](Cc2ccc(NC(=O)[C@@H](NC(=O)Cc3ccc(CO)cc3)C3CCCCC3)cc2)C(=O)NCCCCCCCN1 [Compound 357] | 100 to 1000 |
| CC(C)[C@H](NC(=O)Cc1ccccc1)C(=O)Nc1ccc(C[C@H]2NC(=O)CC3(CCCC3)CC(=O)NCCCCCNC(=O)CNC2=O)cc1 [Compound 313] | 100 to 1000 |
| O=C1CNC(=O)[C@@H](Cc2ccc(NC(=O)[C@@H](NC(=O)c3cccnc3)C3CCCCC3)cc2)NC(=O)CC2(CCCC2)CC(=O)NCCCCCN1 [Compound 362] | 1000 to 10000 |
| O=C1CC2(CCCC2)CC(=O)N[C@H](Cc2ccc(NC(=O)[C@H](Cc3ccccc3Cl)NC(=O)Cc3ccccc3)cc2)C(=O)NCCCCCCN1 [Compound 345] | 100 to 1000 |
| CC(C)C[C@H](NC(=O)Cc1ccccc1)C(=O)Nc1ccc(C[C@H]2NC(=O)CC3(CCCC3)CC(=O)NCCCCCNC(=O)CNC2=O)cc1 [Compound 310] | 100 to 1000 |
| CC[C@H](C)[C@H](NC(=O)Cc1ccccc1)C(=O)Nc1ccc(C[C@H]2NC(=O)CC3(CCCC3)CC(=O)NCCCCCNC(=O)CNC2=O)cc1 [Compound 311] | 100 to 1000 |
| O=C1CC2(CCCC2)CC(=O)N[C@H](Cc2ccc(NC(=O)[C@H](Cc3ccccc3Cl)NC(=O)Cc3ccc(CO)cc3)cc2)C(=O)NC/C=C/CCCCN1 [Compound 364] | 100 to 1000 |

molecular target: T2, biotinylated human IL-17 (binding to IL17R/Fc) (Homo sapiens, UniProt Q16552); assay: IL-17 competition ELISA II (captured IL17R/Fc, biotinylated IL-17); conditions: not given
T2 construct: purchased R&D Systems 317-ILB (IL-17, biotinylated); 177-IR (IL17R/Fc)
T2 sequence (Q16552 20-155 limits assumed): T1 sequence (Q16552 20-155 limits assumed)
Method in brief: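 Anti-human IgG-coated plates captured IL17R/Fc (10 nM), then compound (5-fold dilutions from 1 μM) and biotinylated human IL-17 (20 nM stock) were added for 30 min at room temperature in PBST. Bound IL-17 detected by streptavidin-HRP/TMB at 450 nm. IC50 from 4-parameter logistic fit between no-competitor and blank controls.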

| SMILES | IC50 [nM] |
| --- | --- |
| CN1CCNC(=O)CC2(CCCC2)CC(=O)N[C@H](Cc2ccc(NC(=O)[C@H](Cc3ccccc3Cl)NC(=O)Cc3ccccc3)cc2)C(=O)NCC1 [Compound 399] | < 100 |
| Cc1ccccc1C[C@H](NC(=O)Cc1ccc(F)cc1)C(=O)Nc1ccc(C[C@H]2NC(=O)CC3(CCCC3)CC(=O)NCCCCCNC(=O)[C@@H](CCC(N)=O)NC2=O)cc1 [Compound 515] | < 100 |
| CN1CCCCCN(C)C(=O)[C@@H](CCC(N)=O)NC(=O)[C@@H](Cc2ccc(NC(=O)[C@@H](NC(=O)Cc3ccc(CO)cc3)C3CCCCC3)cc2)NC(=O)CC2(CCCC2)CC1=O [Compound 653] | < 100 |
| O=C1CC2(CCCC2)CC(=O)N[C@H](Cc2ccc(NC(=O)[C@H](Cc3ccccc3Cl)NC(=O)Cc3ccc(CO)cc3)cc2)C(=O)N[C@@H](CO)C(=O)NCCCC[C@@H](C(=O)O)N1 [Compound 455] | < 100 |
| C[C@H]1NC(=O)[C@@H](Cc2ccc(NC(=O)[C@H](Cc3ccccc3Cl)NC(=O)Cc3ccc(N(C)C)cc3)cc2)NC(=O)CC2(CCCC2)CC(=O)N(C)CCN(C)CCN(C)C1=O [Compound 562] | < 100 |
| CN1CCCCCNC(=O)[C@@H](CCC(=O)O)NC(=O)[C@@H](Cc2ccc(NC(=O)[C@H](Cc3ccccc3Cl)NC(=O)Cc3cccc(O)c3)cc2)NC(=O)CC2(CCCC2)CC1=O [Compound 473] | < 100 |
| Cc1ccccc1C[C@H](NC(=O)Cc1ccc(F)cc1)C(=O)Nc1ccc(C[C@H]2NC(=O)CC3(CCCC3)CC(=O)NCCOCCOCCNC2=O)cc1 [Compound 478] | < 100 |
| C[C@H]1NC(=O)[C@@H](Cc2ccc(NC(=O)[C@H](Cc3ccccc3Cl)NC(=O)C3(c4ccc(F)cc4)CC3)cc2)NC(=O)CC2(CCCC2)CC(=O)NCCCCCNC1=O [Compound 427] | < 100 |
| O=C1CC2(CCCC2)CC(=O)N[C@H](Cc2ccc(NC(=O)[C@@H](NC(=O)Cc3ccc(CO)cc3)C3CCCCC3)cc2)C(=O)NCCCCCCCN1 [Compound 357] | < 100 |
| CC(C)[C@H](NC(=O)Cc1ccccc1)C(=O)Nc1ccc(C[C@H]2NC(=O)CC3(CCCC3)CC(=O)NCCCCCNC(=O)CNC2=O)cc1 [Compound 313] | < 100 |
| O=C1CNC(=O)[C@@H](Cc2ccc(NC(=O)[C@@H](NC(=O)c3cccnc3)C3CCCCC3)cc2)NC(=O)CC2(CCCC2)CC(=O)NCCCCCN1 [Compound 362] | 100 to 1000 |
| O=C1CC2(CCCC2)CC(=O)N[C@H](Cc2ccc(NC(=O)[C@H](Cc3ccccc3Cl)NC(=O)Cc3ccccc3)cc2)C(=O)NCCCCCCN1 [Compound 345] | < 100 |
| CC(C)C[C@H](NC(=O)Cc1ccccc1)C(=O)Nc1ccc(C[C@H]2NC(=O)CC3(CCCC3)CC(=O)NCCCCCNC(=O)CNC2=O)cc1 [Compound 310] | < 100 |
| CC[C@H](C)[C@H](NC(=O)Cc1ccccc1)C(=O)Nc1ccc(C[C@H]2NC(=O)CC3(CCCC3)CC(=O)NCCCCCNC(=O)CNC2=O)cc1 [Compound 311] | < 100 |
| O=C1CC2(CCCC2)CC(=O)N[C@H](Cc2ccc(NC(=O)[C@H](Cc3ccccc3Cl)NC(=O)Cc3ccc(CO)cc3)cc2)C(=O)NC/C=C/CCCCN1 [Compound 364] | < 100 |

tested on: IL-17A induced secretion of IL-6 in primary human RASF cells; assay: Inhibition of IL17A induced secretion of IL6 in human rheumatoid arthritis synovial fibroblast (RASF) cells; assay type: cell-based; conditions: Homo sapiens, Fibroblast
Method: This assay was used to determine the extent of inhibition of IL-17A induced secretion of IL-6 in primary human rheumatoid synovial fibroblast (RASF) cells by compounds of the invention. IL-17A is known to stimulate IL-6 production in RASF cells.
Low passage (passage 2-8) Primary human RASF cells (Asterand) were maintained in maintenance medium. Cells were detached from flasks by tryptic digestion and the cell density of the suspension determined. To each well of a 96 well culture plate was added 100 μL of seeding medium containing 50,000 cells/mL and the plate incubated overnight in a humidified 37° C., 5% CO2 incubator. The medium was replaced with fresh assay medium and cells were incubated for additional 5 hours in a humidified 37° C., 5% CO2 incubator prior to stimulation with recombinant human IL-17A (“rhIL-17A”). Prior to addition to cells, rhIL-17A (30 ng/mL) in assay medium was incubated with either DMSO alone, compounds, or anti-IL17 receptor antibody (3 μg/mL) for 1 hour at 37° C. The final concentration of DMSO in all samples was 0.25%. The final concentration of compounds varied from 0.03 μM to 25 μM.
Immediately before stimulation, cells were washed once with fresh assay medium. Then, 100 μL of the test samples was added in triplicate wells and the plates incubated for 20 hours in a humidified 37° C., 5% CO2 incubator. The assay medium from each well was collected and the IL-6 concentration in cell culture supernatants was determined by ELISA either immediately or after storage at −20° C.
A water-soluble tetrazolium salt (WST1) viability assay was immediately performed on the cells after the conditioned medium was collected using a WST1 reagent purchased from Roche. The concentration of IL-6 obtained from ELISA was normalized by the WST1 data.

| SMILES | IC50 [nM] |
| --- | --- |
| CN1CCNC(=O)CC2(CCCC2)CC(=O)N[C@H](Cc2ccc(NC(=O)[C@H](Cc3ccccc3Cl)NC(=O)Cc3ccccc3)cc2)C(=O)NCC1 [Compound 399] | 1000 to 10000 |
| O=C1CNC(=O)[C@@H](Cc2ccc(NC(=O)[C@H](Cc3ccccc3Cl)NC(=O)Cc3cccnc3)cc2)NC(=O)CC2(CCCC2)CC(=O)NCCCCCN1 [Compound 198] | 1000 to 10000 |
| Cc1ccccc1C[C@H](NC(=O)Cc1ccc(F)cc1)C(=O)Nc1ccc(C[C@H]2NC(=O)CC3(CCCC3)CC(=O)NCCCCCNC(=O)[C@@H](CCC(N)=O)NC2=O)cc1 [Compound 515] | < 100 |
| CN1CCCCCN(C)C(=O)[C@@H](CCC(N)=O)NC(=O)[C@@H](Cc2ccc(NC(=O)[C@@H](NC(=O)Cc3ccc(CO)cc3)C3CCCCC3)cc2)NC(=O)CC2(CCCC2)CC1=O [Compound 653] | 1000 to 10000 |
| O=C1CC2(CCCC2)CC(=O)N[C@H](Cc2ccc(NC(=O)[C@H](Cc3ccccc3Cl)NC(=O)Cc3ccc(CO)cc3)cc2)C(=O)N[C@@H](CO)C(=O)NCCCC[C@@H](C(=O)O)N1 [Compound 455] | < 100 |
| C[C@H]1NC(=O)[C@@H](Cc2ccc(NC(=O)[C@H](Cc3ccccc3Cl)NC(=O)Cc3ccc(N(C)C)cc3)cc2)NC(=O)CC2(CCCC2)CC(=O)N(C)CCN(C)CCN(C)C1=O [Compound 562] | 1000 to 10000 |
| CN1CCCCCNC(=O)[C@@H](CCC(=O)O)NC(=O)[C@@H](Cc2ccc(NC(=O)[C@H](Cc3ccccc3Cl)NC(=O)Cc3cccc(O)c3)cc2)NC(=O)CC2(CCCC2)CC1=O [Compound 473] | 100 to 1000 |
| Cc1ccccc1C[C@H](NC(=O)Cc1ccc(F)cc1)C(=O)Nc1ccc(C[C@H]2NC(=O)CC3(CCCC3)CC(=O)NCCOCCOCCNC2=O)cc1 [Compound 478] | 1000 to 10000 |
| C[C@H]1NC(=O)[C@@H](Cc2ccc(NC(=O)[C@H](Cc3ccccc3Cl)NC(=O)C3(c4ccc(F)cc4)CC3)cc2)NC(=O)CC2(CCCC2)CC(=O)NCCCCCNC1=O [Compound 427] | 1000 to 10000 |
| O=C1CNC(=O)[C@@H](Cc2ccc(NC(=O)[C@@H](NC(=O)Cc3ccc(F)cc3)C3CCCCC3)cc2)NC(=O)CC2(CCCC2)CC(=O)NCCCCCN1 [Compound 380] | 100 to 1000 |
| Cc1ccccc1C[C@H](NC(=O)C(F)(F)c1ccccc1)C(=O)Nc1ccc(C[C@H]2NC(=O)CC3(CCCC3)CC(=O)N(C)CCCCCNC(=O)[C@@H](C)NC2=O)cc1 [Compound 512] | 100 to 1000 |
